# Source: patent publication US20230270720A1, “MAVOGLURANT, A MGLUR5 ANTAGONIST, FOR USE IN THE TREATMENT IN THE REDUCTION OF OPIOID USE” (Novartis AG, priority 2020, published 2023)
# Key:
# Sprague-Dawley rats [1] = assay: Remifentanil intravenous self-administration model in Sprague-Dawley rats; format: in vivo, rat; settings: for rate of lever press (speed of lever pressing): vehicle 0.077±0.031, P>0.05
# Sprague-Dawley rats [2] = assay: Cue-induced reinstatement of remifentanil seeking in the rat; format: in vivo
# morphine tolerant mice = assay: Opiate tolerance test (hot plate) in the mouse; format: in vivo; settings: for increase of foot-licking latency as compared with animals receiving morphine from Day 1 to Day 6: morphine 32 mg/kg i.p. twice daily Day 1-6; for effect on foot-licking latency: morphine tolerant mice
# [3] = tested on: rat model of drug dependence; settings: cited from earlier work
# adult CD1 mice = settings: 20 mg/kg, i.p., cited from earlier work
smiles,measurement,setting,value
"COC(=O)N1CC[C@@H]2[C@H]1CCC[C@@]2(O)C#Cc1cccc(C)c1 [Compound (I), (−)-(3aR,4S,7aR)-4-Hydroxy-4-m-tolylethynyl-octahydro-indole-1-carboxylic acid methyl ester]",average number of remifentanil infusions,Sprague-Dawley rats [1]; 3 mg/kg p.o. 30 min before one remifentanil 3.2 μg/kg/infusion session,did not significantly affect
same,rate of lever press (speed of lever pressing),Sprague-Dawley rats [1]; 3 mg/kg p.o. 30 min before session,0.048±0.019 responses/second/session
same,average number of remifentanil infusions,Sprague-Dawley rats [1]; 10 mg/kg p.o. 30 min before one remifentanil 3.2 μg/kg/infusion session,did not significantly affect
same,rate of lever press (speed of lever pressing),Sprague-Dawley rats [1]; 10 mg/kg p.o. 30 min before session,0.035±0.010 responses/second/session
same,average number of remifentanil infusions,Sprague-Dawley rats [1]; 30 mg/kg p.o. 30 min before one remifentanil 3.2 μg/kg/infusion session,did not significantly affect
same,rate of lever press (speed of lever pressing),Sprague-Dawley rats [1]; 30 mg/kg p.o. 30 min before session,0.026±0.007 responses/second/session
same,effect on cue-induced reinstatement (lever presses),Sprague-Dawley rats [2]; 3 mg/kg p.o. 30 minutes before the cue reinstatement session,No significant effect
same,number of active lever presses as compared with vehicle condition,"Sprague-Dawley rats [2]; 10 mg/kg p.o. 30 minutes before the cue reinstatement session, p<0.01",significantly decreased
same,number of inactive lever presses as compared with vehicle,"Sprague-Dawley rats [2]; 10 mg/kg p.o. 30 minutes before the cue reinstatement session, p<0.05",significantly decreased
same,increase of foot-licking latency as compared with animals receiving morphine from Day 1 to Day 6,"morphine tolerant mice; 1 mg/kg p.o. 60 minutes before the test on Day 7, p<0.01",+44%
same,effect on foot-licking latency,morphine tolerant mice; 3 mg/kg p.o. 60 minutes before the test on Day 7,no significant effects
same,effect on foot-licking latency,morphine tolerant mice; 10 mg/kg p.o. 60 minutes before the test on Day 7,no significant effects
"Cc1cccc(C#Cc2ccccc2)n1 [Compound (III), 2-Methyl-6-(phenylethynyl)-pyridine, reference compound]",rate of lever press,"Sprague-Dawley rats [1]; rat, in vivo",0.039±0.011 responses per second
same,number of active lever presses as compared with vehicle condition,"Sprague-Dawley rats [2]; rat, in vivo",significantly decreased
same,number of inactive lever presses as compared with vehicle,"Sprague-Dawley rats [2]; rat, in vivo",did not significantly affect
same,increase of foot-licking latency as compared with animals receiving morphine from Day 1 to Day 6,"morphine tolerant mice; 10 mg/kg p.o. 60 minutes before the test on Day 7, p<0.05",+32%
same,reduction of the self-administration (SA) of ketamine,[3]; dose dependently,75%
same,reduction of the self-administration (SA) of heroin,[3]; modestly,20%
"Cc1nc(C#Cc2cccnc2)cs1 [MTEP, 3-[(2-methyl-1,3-thiazol-4-yl)ethynyl]pyridine]",operant responding for morphine,adult CD1 mice; morphine 0.1 mg/kg/infusion,attenuated
same,cue-induced morphine-seeking after a period of forced abstinence,adult CD1 mice,attenuated
